pIC50: −log10 of the molar value. Values after ≈ are worked out from the molar mass of the structure shown.
Assays:
in vitro [1] = conditions: PAMPA
physchem [2] = conditions: phosphate buffer
in vivo [3] = conditions: Sprague-Dawley, rat, po
in vivo [4] = conditions: Sprague-Dawley, rat, iv
[5] = biological target: Sodium channel protein type 5 subunit alpha (Homo sapiens, UniProt Q14524)
in vitro [6] = conditions: dog, MDCK
[7] = biological target: Voltage-gated inwardly rectifying potassium channel KCNH2 (Homo sapiens, UniProt Q12809);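 also: hERG channel blockade measured by electrophysiology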
physchem [8] = conditions: octanol/water
in vivo [9] = conditions: Sprague-Dawley, rat, po; remark: listed apart in the source
[10] = rat, microsomes, 0.5 h, 0.5 µM
[11] = human, microsomes, 0.5 h, 0.5 µM
MDR1 = assay: in vitro; conditions: dog, MDCK-MDR1
[12] = rat, in vivo, po
[13] = Drug concentration in brain of Sprague-Dawley rat model of L5/L6 spinal nerve ligation-induced neuropathic pain at 10 mg/kg, po by LC/MS analysis; type: ADME, organism-based; conditions: in vivo
Rattus norvegicus [14] = assay: Antiallodynic activity in Sprague-Dawley rat model of L5/L6 spinal nerve ligation-induced neuropathic pain assessed as maximal possible effect at 30 mg/kg, po; type: functional
[15] = Ratio of free drug concentration in brain to plasma of rat; type: ADME, cell-free; conditions: brain and plasma
[16] = biological target: Sodium channel protein type 9 subunit alpha (Homo sapiens, UniProt Q15858)
Rattus norvegicus [17] = assay: Antiallodynic activity in Sprague-Dawley rat model of L5/L6 spinal nerve ligation-induced neuropathic pain assessed as maximal possible effect at 10 mg/kg, po; type: functional
[18] = Drug concentration in brain of Sprague-Dawley rat model of L5/L6 spinal nerve ligation-induced neuropathic pain at 100 mg/kg, po by LC/MS analysis; type: ADME, organism-based; conditions: in vivo
[19] = biological target: Sodium channel protein type 10 subunit alpha (Homo sapiens, UniProt Q9Y5Y9); assay: Inhibition of human Nav1.8 by FRET based membrane potential assay
Rattus norvegicus [20] = assay: Antiallodynic activity in Sprague-Dawley rat model of L5/L6 spinal nerve ligation-induced neuropathic pain assessed as maximal possible effect at 100 mg/kg, po; type: functional
[21] = Drug concentration in plasma of Sprague-Dawley rat model of L5/L6 spinal nerve ligation-induced neuropathic pain at 100 mg/kg, po by LC/MS analysis; type: ADME, organism-based; conditions: in vivo
[22] = Drug concentration in plasma of Sprague-Dawley rat model of L5/L6 spinal nerve ligation-induced neuropathic pain at 10 mg/kg, po by LC/MS analysis; type: ADME, organism-based; conditions: in vivo
[23] = Drug concentration in brain of Sprague-Dawley rat model of L5/L6 spinal nerve ligation-induced neuropathic pain at 30 mg/kg, po by LC/MS analysis; type: ADME, organism-based; conditions: in vivo
[24] = Drug concentration in plasma of Sprague-Dawley rat model of L5/L6 spinal nerve ligation-induced neuropathic pain at 30 mg/kg, po by LC/MS analysis; type: ADME, organism-based; conditions: in vivo
[25] = biological target: Sodium channel protein type 2 subunit alpha (Homo sapiens, UniProt Q99250); assay: Inhibition of recombinant human Nav1.2 expressed in HEK293 cells incubated for 3 mins by FRET based membrane potential assay; type: cell-based
Rattus norvegicus [26] = assay: Antiallodynic activity in Sprague-Dawley rat model of L5/L6 spinal nerve ligation-induced neuropathic pain assessed as maximal possible effect at 10 mg/kg, ip; type: functional
Rattus norvegicus [27] = assay: Antiallodynic activity in Sprague-Dawley rat model of L5/L6 spinal nerve ligation-induced neuropathic pain assessed as maximal possible effect at 3 mg/kg, ip; type: functional
[28] = Drug concentration in plasma of Sprague-Dawley rat model of L5/L6 spinal nerve ligation-induced neuropathic pain at 10 mg/kg, ip by LC/MS analysis; type: ADME, organism-based; conditions: in vivo
[29] = Drug concentration in plasma of Sprague-Dawley rat model of L5/L6 spinal nerve ligation-induced neuropathic pain at 30 mg/kg, ip by LC/MS analysis; type: ADME, organism-based; conditions: in vivo
[30] = Drug concentration in plasma of Sprague-Dawley rat model of L5/L6 spinal nerve ligation-induced neuropathic pain at 3 mg/kg, ip by LC/MS analysis; type: ADME, organism-based; conditions: in vivo
Rattus norvegicus [31] = assay: Antiallodynic activity in Sprague-Dawley rat model of L5/L6 spinal nerve ligation-induced neuropathic pain assessed as maximal possible effect at 30 mg/kg, ip; type: functional
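For logD in this document: distribution coefficient quantified using high-throughput LC-MS.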
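For solubility in this document: determined using a high-throughput solubility method.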

Chain of Voltage-gated inwardly rectifying potassium channel KCNH2 (Q12809 whole entry): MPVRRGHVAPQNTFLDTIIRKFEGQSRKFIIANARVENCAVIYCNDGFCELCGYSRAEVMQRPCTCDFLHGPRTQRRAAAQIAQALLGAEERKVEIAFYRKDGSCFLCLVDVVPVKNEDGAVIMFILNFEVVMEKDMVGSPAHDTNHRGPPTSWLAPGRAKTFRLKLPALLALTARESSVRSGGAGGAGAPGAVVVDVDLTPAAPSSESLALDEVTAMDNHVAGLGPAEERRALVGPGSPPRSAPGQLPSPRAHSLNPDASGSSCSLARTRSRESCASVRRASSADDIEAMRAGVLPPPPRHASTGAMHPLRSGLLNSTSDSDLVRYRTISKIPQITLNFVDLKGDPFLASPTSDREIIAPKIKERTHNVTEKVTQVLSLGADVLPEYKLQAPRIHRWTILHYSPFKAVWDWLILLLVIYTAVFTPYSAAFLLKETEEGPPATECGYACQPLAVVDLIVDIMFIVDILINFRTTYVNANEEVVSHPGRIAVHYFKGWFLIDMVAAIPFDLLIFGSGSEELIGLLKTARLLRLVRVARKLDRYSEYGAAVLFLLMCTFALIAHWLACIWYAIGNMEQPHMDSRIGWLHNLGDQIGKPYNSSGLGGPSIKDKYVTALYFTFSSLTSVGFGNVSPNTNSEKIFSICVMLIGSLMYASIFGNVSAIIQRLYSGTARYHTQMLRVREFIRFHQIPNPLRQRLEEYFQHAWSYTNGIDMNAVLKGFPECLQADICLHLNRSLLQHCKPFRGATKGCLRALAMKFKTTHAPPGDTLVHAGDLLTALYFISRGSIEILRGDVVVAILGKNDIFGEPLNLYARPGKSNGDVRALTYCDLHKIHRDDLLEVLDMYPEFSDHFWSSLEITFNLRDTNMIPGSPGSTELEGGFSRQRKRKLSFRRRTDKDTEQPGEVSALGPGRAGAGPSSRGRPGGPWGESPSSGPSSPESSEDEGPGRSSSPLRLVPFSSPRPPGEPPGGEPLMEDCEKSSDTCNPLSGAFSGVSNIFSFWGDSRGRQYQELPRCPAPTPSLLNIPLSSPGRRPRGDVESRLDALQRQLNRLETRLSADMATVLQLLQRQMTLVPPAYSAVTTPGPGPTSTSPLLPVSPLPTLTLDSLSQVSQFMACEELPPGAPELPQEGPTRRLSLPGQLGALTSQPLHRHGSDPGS
Chain of Sodium channel protein type 5 subunit alpha (Q14524 whole entry): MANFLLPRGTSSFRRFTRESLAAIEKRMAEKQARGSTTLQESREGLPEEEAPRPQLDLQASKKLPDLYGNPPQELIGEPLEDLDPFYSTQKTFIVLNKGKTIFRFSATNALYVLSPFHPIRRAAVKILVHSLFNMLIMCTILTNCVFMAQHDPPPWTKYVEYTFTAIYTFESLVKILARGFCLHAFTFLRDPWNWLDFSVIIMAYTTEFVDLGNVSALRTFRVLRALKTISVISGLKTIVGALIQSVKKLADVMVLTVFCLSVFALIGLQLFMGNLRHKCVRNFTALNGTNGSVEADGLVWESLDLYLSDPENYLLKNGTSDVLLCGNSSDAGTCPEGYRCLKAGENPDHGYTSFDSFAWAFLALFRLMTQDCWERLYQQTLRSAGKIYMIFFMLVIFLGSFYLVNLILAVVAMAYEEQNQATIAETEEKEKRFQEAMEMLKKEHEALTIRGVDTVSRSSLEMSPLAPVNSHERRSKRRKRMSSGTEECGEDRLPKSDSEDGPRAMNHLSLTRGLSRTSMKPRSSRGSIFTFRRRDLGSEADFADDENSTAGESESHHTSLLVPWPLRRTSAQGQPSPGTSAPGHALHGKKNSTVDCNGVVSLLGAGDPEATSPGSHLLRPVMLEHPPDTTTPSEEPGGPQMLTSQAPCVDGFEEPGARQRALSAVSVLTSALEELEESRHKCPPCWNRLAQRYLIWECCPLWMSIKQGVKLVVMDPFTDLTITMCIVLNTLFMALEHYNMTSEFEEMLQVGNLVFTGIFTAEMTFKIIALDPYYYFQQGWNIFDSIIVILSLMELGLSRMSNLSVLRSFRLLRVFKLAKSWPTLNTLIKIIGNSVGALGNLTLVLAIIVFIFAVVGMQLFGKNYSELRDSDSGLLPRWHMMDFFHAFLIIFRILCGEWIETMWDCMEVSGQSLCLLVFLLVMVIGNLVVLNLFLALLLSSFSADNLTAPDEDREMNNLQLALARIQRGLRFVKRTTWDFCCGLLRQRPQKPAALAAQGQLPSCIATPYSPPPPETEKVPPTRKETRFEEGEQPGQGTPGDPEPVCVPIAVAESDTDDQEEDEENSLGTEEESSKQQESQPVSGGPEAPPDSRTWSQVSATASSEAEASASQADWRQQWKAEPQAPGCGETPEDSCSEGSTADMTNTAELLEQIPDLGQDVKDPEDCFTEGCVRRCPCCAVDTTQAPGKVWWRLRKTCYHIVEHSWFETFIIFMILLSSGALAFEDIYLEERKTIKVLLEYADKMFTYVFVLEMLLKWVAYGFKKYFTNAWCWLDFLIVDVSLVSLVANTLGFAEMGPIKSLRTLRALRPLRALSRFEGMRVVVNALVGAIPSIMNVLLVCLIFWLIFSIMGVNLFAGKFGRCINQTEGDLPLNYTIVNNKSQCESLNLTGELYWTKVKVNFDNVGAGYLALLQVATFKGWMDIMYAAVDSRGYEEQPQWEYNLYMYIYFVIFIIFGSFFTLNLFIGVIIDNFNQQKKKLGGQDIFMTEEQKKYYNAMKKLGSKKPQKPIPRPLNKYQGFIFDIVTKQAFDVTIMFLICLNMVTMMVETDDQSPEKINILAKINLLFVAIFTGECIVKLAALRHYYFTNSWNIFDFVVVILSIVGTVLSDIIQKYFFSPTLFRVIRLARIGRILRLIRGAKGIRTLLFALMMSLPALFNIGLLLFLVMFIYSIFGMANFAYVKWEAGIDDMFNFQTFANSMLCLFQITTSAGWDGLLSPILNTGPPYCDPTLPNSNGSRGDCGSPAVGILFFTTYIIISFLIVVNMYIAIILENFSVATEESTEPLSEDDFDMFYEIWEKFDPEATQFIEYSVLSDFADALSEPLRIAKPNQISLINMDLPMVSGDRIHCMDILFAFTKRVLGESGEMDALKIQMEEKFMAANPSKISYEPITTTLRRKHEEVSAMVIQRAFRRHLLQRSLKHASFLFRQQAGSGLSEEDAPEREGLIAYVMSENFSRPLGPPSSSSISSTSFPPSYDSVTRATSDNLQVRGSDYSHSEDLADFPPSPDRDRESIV
Chain of Sodium channel protein type 9 subunit alpha (Q15858 whole entry, looked up): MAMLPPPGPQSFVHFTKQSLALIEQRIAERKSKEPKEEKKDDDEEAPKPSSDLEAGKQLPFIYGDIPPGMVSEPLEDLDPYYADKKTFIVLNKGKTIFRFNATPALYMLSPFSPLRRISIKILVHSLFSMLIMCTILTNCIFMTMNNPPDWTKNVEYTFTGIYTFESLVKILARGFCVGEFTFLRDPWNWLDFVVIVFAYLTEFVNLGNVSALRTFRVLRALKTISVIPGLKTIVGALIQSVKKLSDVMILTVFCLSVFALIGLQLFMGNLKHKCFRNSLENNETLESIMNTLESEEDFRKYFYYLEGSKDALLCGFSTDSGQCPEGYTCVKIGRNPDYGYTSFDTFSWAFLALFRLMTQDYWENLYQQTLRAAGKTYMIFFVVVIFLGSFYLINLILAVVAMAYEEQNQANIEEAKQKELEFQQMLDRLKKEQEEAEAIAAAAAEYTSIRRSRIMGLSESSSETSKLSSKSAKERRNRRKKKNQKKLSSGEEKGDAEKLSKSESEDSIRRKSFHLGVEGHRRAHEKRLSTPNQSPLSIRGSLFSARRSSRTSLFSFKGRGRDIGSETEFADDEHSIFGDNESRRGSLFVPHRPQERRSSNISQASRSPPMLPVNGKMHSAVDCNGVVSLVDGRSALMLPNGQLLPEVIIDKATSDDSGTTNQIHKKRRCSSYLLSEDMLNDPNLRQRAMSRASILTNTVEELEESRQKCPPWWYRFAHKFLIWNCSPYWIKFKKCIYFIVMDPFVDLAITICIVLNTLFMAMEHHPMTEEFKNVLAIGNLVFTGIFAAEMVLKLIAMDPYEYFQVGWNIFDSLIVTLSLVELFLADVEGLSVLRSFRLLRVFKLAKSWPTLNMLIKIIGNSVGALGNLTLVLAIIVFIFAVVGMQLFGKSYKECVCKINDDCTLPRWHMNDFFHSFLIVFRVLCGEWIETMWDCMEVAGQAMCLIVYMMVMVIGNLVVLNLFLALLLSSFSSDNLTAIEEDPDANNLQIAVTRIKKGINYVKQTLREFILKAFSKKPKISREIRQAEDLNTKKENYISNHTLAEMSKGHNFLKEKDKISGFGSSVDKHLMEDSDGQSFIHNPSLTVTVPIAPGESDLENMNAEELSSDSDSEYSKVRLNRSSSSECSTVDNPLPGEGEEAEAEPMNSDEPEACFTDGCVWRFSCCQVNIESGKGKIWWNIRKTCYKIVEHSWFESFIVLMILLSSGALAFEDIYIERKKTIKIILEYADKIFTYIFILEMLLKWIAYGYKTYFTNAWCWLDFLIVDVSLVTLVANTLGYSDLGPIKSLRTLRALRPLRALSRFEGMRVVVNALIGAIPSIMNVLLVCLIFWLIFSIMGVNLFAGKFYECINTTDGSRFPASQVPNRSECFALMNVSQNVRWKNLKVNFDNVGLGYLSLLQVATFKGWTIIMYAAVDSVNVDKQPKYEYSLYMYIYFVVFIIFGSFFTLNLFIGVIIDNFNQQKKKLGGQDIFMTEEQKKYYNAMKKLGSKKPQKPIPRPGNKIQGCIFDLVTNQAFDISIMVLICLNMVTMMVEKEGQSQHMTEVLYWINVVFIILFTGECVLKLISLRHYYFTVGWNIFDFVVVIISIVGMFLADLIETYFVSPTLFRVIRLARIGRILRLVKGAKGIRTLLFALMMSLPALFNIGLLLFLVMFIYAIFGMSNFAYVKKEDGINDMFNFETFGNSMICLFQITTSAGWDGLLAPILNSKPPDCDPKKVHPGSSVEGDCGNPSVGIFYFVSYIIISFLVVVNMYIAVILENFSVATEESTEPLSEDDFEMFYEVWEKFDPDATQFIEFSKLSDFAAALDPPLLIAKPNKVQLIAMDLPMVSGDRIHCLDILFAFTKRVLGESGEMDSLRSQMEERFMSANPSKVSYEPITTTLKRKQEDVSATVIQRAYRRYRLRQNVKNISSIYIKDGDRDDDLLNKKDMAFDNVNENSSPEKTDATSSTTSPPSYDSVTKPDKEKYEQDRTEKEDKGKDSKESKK

Row | SMILES | Papp (in vitro [1]) [×10⁻⁶ cm/s] | solubility (physchem [2]) [µM] | bioavailability (in vivo [3]) [%] | clearance (in vivo [4]) [mL/min/kg] | pIC50 [5] | Papp (in vitro [6]) [×10⁻⁶ cm/s] | pIC50 [7] | logD (physchem [8]) | further results
1 | O=C(N[C@H]1C[C@@H](O)C1)c1ccc2cc(Oc3ccc(C(F)(F)F)cn3)ccc2n1 | 19.5 | 10 (≈ 4.03 µg/mL) | 23 | 60.3 | 4.48 | – | – | – | –
2 | CN1CCN(C(=O)c2ccc3cc(Oc4ccccn4)ccc3n2)CC1 | – | 200 (≈ 69.7 µg/mL) | – | 70 | – | 8 | 4.77 | 1.1 | –
3 | O=C(c1ccc2cc(Oc3ccc(OC(F)(F)F)cn3)ccc2n1)N1CCNCC1 | 5.1 | 150 (≈ 62.8 µg/mL) | 92 | – | – | – | 4.89 | 3.4 | half-life (in vivo [9]): 756 min
4 | N#Cc1ccc(Oc2ccc3nc(OCC(=O)NCC(N)=O)ccc3c2)cc1 | – | 0.824 (≈ 0.31 µg/mL) | – | – | – | 12.8 | < 4.52 | 3 | CLH [10]: < 3 L/h/kg; CLH [11]: 2 L/h/kg; efflux ratio (MDR1): 14.9
5 | O=C(c1ccc2cc(Oc3cccc(C(F)(F)F)n3)ccc2n1)N1CCNCC1 | – | 200 (≈ 80.5 µg/mL) | – | 83.3 | – | 52.2 | 4.89 | 3 | –
6 | O=C(NC1CCC1)c1ccc2cc(Oc3ccc(C(F)(F)F)cn3)ccc2n1 | 3.4 | 5 (≈ 1.94 µg/mL) | – | – | 4.50 | – | – | – | –
7 | N#Cc1ccc(COc2ccc3nc(C(=O)N4CCNCC4)ccc3c2)cc1 | 2.7 | 143 (≈ 53.3 µg/mL) | – | – | – | – | 5.25 | 2.9 | efflux ratio (MDR1): 23.4
8 | O=C(c1ccc2cc(Oc3cc(C(F)(F)F)ccn3)ccc2n1)N1CCNCC1 | – | 200 (≈ 80.5 µg/mL) | 91 | 115 | – | 49 | 5.14 | 3.4 | –
9 | O=C(c1ccc2cc(Oc3ccc(C(F)(F)F)cn3)ccc2n1)N1CCNC(C(F)(F)F)C1 (stereo not drawn) | 24.3 | 78 (≈ 36.7 µg/mL) | 106 | 40.5 | 4.48 | – | – | – | half-life (in vivo [9]): 190 min; Vdss [12]: 9.23 L/kg
10 | O=C(NC1CC(F)(F)C1)c1ccc2cc(Oc3ccc(C(F)(F)F)cn3)ccc2n1 | 12.1 | 5 (≈ 2.12 µg/mL) | 82 | – | 4.48 | – | – | – | –
11 | O=C(c1ccc2cc(Oc3ccc(C(F)(F)F)cn3)ccc2n1)N1CCN(CC(F)(F)F)CC1 | – | 46 (≈ 22.3 µg/mL) | – | – | 4.48 | 24.6 | – | – | –
12 | O=C(c1ccc2cc(Oc3ccc(S(=O)(=O)C(F)(F)F)cc3)ccc2n1)N1CCNCC1 | 0.8 | 150 (≈ 69.8 µg/mL) | – | – | – | – | 5.37 | 3.8 | efflux ratio (MDR1): 45.5
13 | N#Cc1ccc(Oc2ccc3c(ccc(=O)n3CCN3CCCCC3)c2)cc1 | 3.7 | 140 (≈ 52.3 µg/mL) | 17 | 52.7 | 5.80 | – | > 6.00 | 3.4 | Ct [13]: 0.56 µg/mL; MPE (Rattus norvegicus [14]): 53%; Kp uu [15]: 0.45; pIC50 [16]: 5.64; MPE (Rattus norvegicus [17]): 54%; CLH [10]: 38 L/h/kg; Ct [18]: 3.38 µg/mL; pIC50 [19]: 7.10; MPE (Rattus norvegicus [20]): 89%; Cp [21]: 1.27 µg/mL; Cp [22]: 0.29 µg/mL; CLH [11]: 9 L/h/kg; Ct [23]: 1.05 µg/mL; Cp [24]: 0.47 µg/mL; pIC50 [25]: 5.47
14 | O=C(c1ccc2cc(Oc3cnc(C(F)(F)F)cn3)ccc2n1)N1CCNCC1 | 3.8 | 149 (≈ 60.1 µg/mL) | – | – | – | – | 4.73 | 2.7 | efflux ratio (MDR1): 16.1
15 | N#Cc1ccc(Oc2ccc3nc(C(=O)N4CCNCC4)ccc3c2)cc1 | – | 194 (≈ 69.5 µg/mL) | 89 | < 33.3 | – | 0.4 | 5.28 | 2.6 | –
16 | O=C(c1ccc2cc(Oc3ccc(C(F)(F)F)cc3)ccc2n1)N1CCNCC1 | 2.1 | 140 (≈ 56.2 µg/mL) | – | – | – | – | 5.23 | 4 | efflux ratio (MDR1): 3.7
17 | CN1CCN(C(=O)COc2ccc3cc(Oc4ccccn4)ccc3n2)CC1 | – | 176 (≈ 66.6 µg/mL) | 10 | 54 | 4.48 | 33.4 | 4.52 | 2.9 | half-life (in vivo [9]): 203 min; MPE (Rattus norvegicus [26]): 30%; MPE (Rattus norvegicus [27]): 10%; Kp uu [15]: 0.88; pIC50 [16]: 5.50; Cp [28]: 0.4 µg/mL; CLH [10]: 34 L/h/kg; Cp [29]: 1.93 µg/mL; pIC50 [19]: 5.74; Cp [30]: 0.11 µg/mL; MPE (Rattus norvegicus [31]): 59%; CLH [11]: < 2 L/h/kg; pIC50 [25]: 4.70; efflux ratio (MDR1): 3.7
18 | O=C(c1ccc2cc(Oc3ccc(C(F)(F)F)cn3)ccc2n1)N1CC[C@H](F)C1 | 31.6 | 55 (≈ 22.3 µg/mL) | 104 | 12.8 | 4.48 | – | – | – | half-life (in vivo [9]): 220 min; Vdss [12]: 6.47 L/kg
19 | O=C(N[C@@H]1CCOC1=O)c1ccc2cc(Oc3ccc(C(F)(F)F)cn3)ccc2n1 | 32.7 | 5 (≈ 2.09 µg/mL) | – | – | 4.48 | – | – | – | –
20 | O=C(NC1CC(F)C1)c1ccc2cc(Oc3ccc(C(F)(F)F)cn3)ccc2n1 (stereo not drawn) | 16.7 | 5 (≈ 2.03 µg/mL) | – | – | 4.48 | – | – | – | –
21 | CC(=O)c1ccc(Oc2ccc3nc(C(=O)N4CCNCC4)ccc3c2)cc1 | – | 145 (≈ 54.4 µg/mL) | 54 | – | – | 19.7 | 4.63 | 3.1 | half-life (in vivo [9]): 198 min
22 | CS(=O)(=O)C1CN(C(=O)c2ccc3cc(Oc4ccc(C(F)(F)F)cn4)ccc3n2)C1 | 21.5 | 18 (≈ 8.13 µg/mL) | 126 | – | – | – | – | – | half-life (in vivo [9]): 204 min
